“Also recorded” adds a separate entry of the source.
Key:
[1] = system: 27-month-old C57BL/6 mice; assay: Activity monitoring wheel test (voluntary running wheel activity) in aged mice; type: in vivo, mouse; settings: 27-month-old mice; 0.3 mg/dose PO once daily for 35 days
Protocol: (§1) In this study, aged mice were treated with BGE-117 daily for 35 days. Daily voluntary running wheel activity levels, as well as hemoglobin levels at Days 0 and 14, were measured. The effects of the BGE-117 compound were examined for the reversal of frailty in mice.
The animals were housed with access to voluntary running wheels that wirelessly transmit running data to a computer for analysis. The outcome of interest was the median number of daily wheel rotations generated by mice in each group (n=9 per group), and this is shown as the dots in FIG. 6 (one median number of rotations per day per group) and also as the numbers on the right. […]
The first day of the study (Study Day 1) started with Animal Acclimation, followed by the BGE-117 treatment start date on Study Day 33 (Phase Day 1). […] For the frailty portion of the study, mice were assessed using an activity monitoring wheel which was monitored passively with a computer monitoring system. […]
The activity monitoring wheel is a running disk that monitors rotations. […] Activity was monitored passively and wirelessly with a computer monitoring system. Running wheel activity levels were monitored daily. […]
The wheels were electronically monitored and the number of rotations of the wheel per minute was recorded continuously throughout the entire study.

[2] = system: HIF prolyl hydroxylase (PHD) 1/2/3; settings: cited from earlier work
[3] = system: patients over 65 years of age with UAA; assay: Phase 2a, 12-week, randomized, double-blind, placebo-controlled study in Unexplained Anemia of Aging (UAA); type: in vivo, human; settings: elderly UAA subjects; 4-24 mg once daily, 12 weeks
Source text: Study Title: A Phase 2a, 12-Week, Randomized, Double-Blind, Placebo-Controlled, Multi-Center Study to Evaluate Efficacy and Safety of BGE-117 in the Treatment of Unexplained Anemia of Aging (UAA)
This is a Phase II, randomized, double-blind, placebo-controlled multi-center study to compare the safety of BGE-117 when administered in patients over 65 years of age for 12 weeks. The study consists of 3 periods: Screening, Treatment, and Follow-up. FIG. 16 provides a summary of the study design.
The study size for this study is 160 evaluable subjects (80 subjects randomized to BGE-117 and 80 subjects randomized to placebo). The subject's maximum duration of participation is approximately 154 days. This includes 6 weeks for the Screening Period, 12 weeks for the Treatment Period, and 4 weeks for the Follow-up Period.
Subjects are advised to take IP with water once a day, recommended that the subject take the study medication 1 hour before their morning meal, starting on Visit 3 (Day 1), for 84 consecutive days, through Visit 15 (Day 85). Capsules are taken whole, not crushed, chewed, or cut.
This study is a double-blind, placebo-controlled study. Subjects are randomized to receive either of the following: • BGE-117: a hypoxia inducible factor-prolyl hydroxylase (HIF-PHD) inhibitor in 4 mg and 12 mg capsules; or • Placebo: matching capsule without active drug • The starting dose and maximum dose for BGE-117/placebo is based on a subject's screening renal function results: • The starting dose for subjects with an estimated glomerular filtration rate (eGFR) ≥60 mL/min/1.73 m2 is 12 mg/placebo. The maximum dose is 24 mg/placebo. • The starting dose for subjects with an eGFR between ≥30 and <60 mL/min/1.73 m^2is 4 mg/placebo. The maximum dose is 16 mg/placebo.
From Visits 5 through 11 (Days 15 through 57), dose adjustment opportunities are scheduled approximately every 14 days to achieve and maintain Hb within the target range. Dose adjustments are based on the local laboratory's results, with the goal of titrating Hb levels to a range of ≥12.0 to ≤13.0 g/dL. In the event of excessively rapid Hb increases or unacceptably high Hb levels or trends, in the investigator's opinion, the dose may be adjusted at any time, even on visits without a dose adjustment review.
• Improvement in Hb at Visit 15 (Day 85/EOTP) compared to baseline
• Improvement in FACIT-Fatigue Score at Visit 15 (Day 85/EOTP) compared to baseline
• Change in Hb at Visits 7, and 11 (Days 29, and 57) and Follow-up Visit compared to baseline • Improvement in FACIT-Fatigue score at Visits 7 and 11 (Day 29 and 57) and the Follow-up Visit compared to baseline • Change in SPPB Score at Visits 7, 11, and 15 (Day 29, 57, and 85), and Follow-up Visit compared to baseline • Change in 6MWT Distance at Visits 7, 11, and 15 (Days 29, 57, and 85) and the Follow-up Visit compared to baseline • Change in SF-36 at Visits 7, 11, and 15 (Days 29, 57, and 85) and the Follow-up Visit compared to baseline • Evaluate the starting dose of BGE-117 in the treatment of UAA for subjects with eGFR ≥60 mL/min/1.73 m^2 and subjects with eGFR ≥30 and <60 mL/min/1.73 m^2
Change in Hb is the primary endpoint and is a direct assessment of the disease of unexplained anemia in aging patients. Changes in FACIT-Fatigue is the key secondary endpoint. Analysis of both of these endpoints is an ANCOVA with baseline covariates. Testing for FACIT-Fatigue is done only after achieving statistical significance for the change in Hb.

[4] = system: aged C57BL/6 mice; assay: Hemoglobin levels in aged mice (Hb assay kit ab234046); type: in vivo, mouse; settings: for Hemoglobin concentration vs vehicle control (FIG. 4B): after 14 days of treatment; for Hemoglobin levels in aged mice, Mean: 27-month-old mice
Protocol: as §1
The BGE-117 compound for the TA-1 treatment group was formulated in 0.5% carboxymethylcellulose (CMC) and 0.5% Tween 80 and constituted at a concentration of 1 mg/ml. The test article for the Control group included 0.5% CMC and 0.5% Tween 80, acting as a vehicle control. Mice were treated with BGE-117 at a concentration of 1 mg/ml at a volume of 300 μl/mouse (0.3 ml/mouse), for 0.3 mg/dose (TA-1); control group mice (TA-2) were administered a vehicle control at a dose volume of 0.3 ml/mouse. Administration was oral, once per day.
Using a 4 mm lancet, approximately 150 microliters of whole blood was collected from the submental vein, utilizing the submandibular vein as back-up. Blood was collected using 500 microliter Serum Separator tubes and stored at room temperature for 45 minutes or until clotted. Blood was centrifuged at 4000 RPM for 10 minutes in at 4° C. If the serum was not analyzed immediately, the serum was apportioned into 0.5 ml aliquots, stored, and transported at −80° C.
The following procedure was performed for the hemoglobin assay: • 1. Mouse blood was collected in Li-heparin tubes. • 2. Blood was briefly vortexed and 2 μl of whole blood was transferred into a 96-well clear plate containing 18 μl of distilled water. • 3. 160 μl sample buffer was added to the 96-well clear plate from the Hemoglobin Assay Kit (ab234046). • 4. 20 μl 1N NaOH was added to blood samples to the diluted sample in each well. • 5. The standard curve was established with included hemoglobin standard (ab234046) as per the manufacturer's instruction. • 6. The reaction was incubated at room temperature for 8-15 minutes. Read absorbance at 575 nm in end point mode. • 7. Hb concentration was calculated as recommended by the assay kit.

[5] = system: patients with chronic kidney disease and normal healthy human volunteers; settings: patients with chronic kidney disease and normal healthy human volunteers (Shinfuku et al. 2018); cited from earlier work
[6] = system: 23-month-old and 27-month old C57BL/6 mice with anemia of inflammation; assay: Hemoglobin in aged mice with anemia of inflammation (elevated TNFα and/or IL-6), BGE-117 study; type: in vivo, mouse; settings: 10 mg/kg PO once daily
Protocol: The study included 23-month-old mice (n=39) (23-months old at the start of the experiment, and 24 months old at the end since the experiment lasted 35 days) and 27-month old mice (n=14) (27-months old at the start of the experiment, and 28 months old at the end since the experiment lasted 35 days) from strain C57BL/6 that were administered BGE-117 or vehicle once daily for a duration of […].
Once the 23 month old mice developed anemia of inflammation at 23-months (±2 weeks), mice were randomly divided into two groups: Anemia of inflammation vehicle-treated Control group 1 (“23-month Control Group” (CG1)) (n=18) and Anemia of inflammation BGE-117-treated group (“BGE-117 23-month Test Group” (BGE-117 TG1)) (n=21), while ensuring that the mean hemoglobin levels and inflammatory cytokine levels remained balanced among the groups.
Once the 27-month old mice developed anemia of inflammation at 27-months (±2 weeks), mice were randomly divided into two groups: Anemia of inflammation vehicle-treated Control group (“27-month Control Group” (CG2)) (n=8), Anemia of inflammation BGE-117-treated group (“BGE-117 27-month Test Group” (BGE-117 TG2)) (n=6), while ensuring that the mean hemoglobin levels remained balanced among the groups. The mice in the two “Anemia of inflammation” pre-treatment (baseline) groups had high (130% or higher of the median values) TNFα and/or IL-6 as indicated in FIGS. 11-12.
The 23-month old and 27-month old Test Groups BGE-117 TG1 and BGE-117 TG2 were administered 10 mg/kg of BGE-117 once daily for 5 weeks by oral gavage in 0.5% carboxymethylcellulose (CMC) and 0.5% Tween 80. The 23-month old and 27-month old Control Groups CG1 and CG2 were administered vehicle of 0.5% carboxymethylcellulose (CMC) and 0.5% Tween 80 by oral gavage on the same schedule.
Blood was collected from the submandibular vein at the start of the study immediately before drug administration, and after 14 days of drug administration. The blood samples was mixed with EDTA and analyzed using the Hemoglobin assay kit from Abcam (ab234046) with modification. The signal was read on Molecular Device SpectraMax 340PC-384. The inflammatory markers were measured by Luminex Mouse Magnetic Assay (5-PLEX, LXSAMSM-05 by R&D Systems) on Luminex 200. At day 35 post drug initiation the mice were anesthetized with isoflurane and blood samples were collected from abdominal vein.

[7] = system: 5/6 nephrectomized rats; settings: 5/6 nephrectomized rats (Kato et al. 2019); cited from earlier work

## O=C(O)CNC(=O)C1=C(O)CCN(Cc2ccc(Oc3ccc(Cl)cc3)nc2)C1=O [BGE-117, N-[(1{[6-(4-chlorophenoxy)-3-pyridinyl]methyl}-4-hydroxy-2-oxo-1,2,5,6-tetrahydro-3-pyridinyl)carbonyl]glycine]
[1]
  Voluntary running wheel activity (median daily wheel rotations) vs age-matched controls: statistically significant (p<0.001) increase in voluntary activity; also recorded: significantly increased activity
[2]
  HIF prolyl hydroxylase inhibition, type: competitive HIF prolyl hydroxylase (PHD) 1/2/3 pan-inhibitor
[3]
  Activity levels and sleep quality compared to baseline: Improve activity levels and sleep quality
  Fatigue (FACIT-Fatigue Score) compared to baseline: Reduce fatigue
  Hemoglobin levels compared to baseline: Increase hemoglobin levels
  Oxygen delivery, mobility, QOL, and energy levels: Improve oxygen delivery, mobility, QOL, and energy levels
  Physical activity (SPPB scores, 6MWT, grip strength test) compared to baseline: Improve physical activity
[4]; 23-month old mice
  Hemoglobin concentration vs vehicle control (FIG. 4B): significant increase of hemoglobin levels
[4]; 27-month old mice
  Hemoglobin concentration vs vehicle control (FIG. 4B): significant increase of hemoglobin levels
[4]; Week 0 (before treatment), BGE-117 group
  Hemoglobin levels in aged mice, Mean: 10.98 g/dL
[4]; Week 2, 0.3 mg/dose PO once daily
  Hemoglobin levels in aged mice, Mean: 19 g/dL
[5]
  EPO production: increase EPO production
[6]; 23-month old and 27-month old Test Groups
  Hb levels of Test Groups vs Control Groups administered vehicle alone: significantly increased Hb levels
[6]; 23-month-old mice with elevated TNFα, after two weeks
  Hemoglobin levels before vs after treatment (FIG. 9B): significant increases in hemoglobin levels
[6]; 23 month old mice with elevated IL-6, after two weeks
  Hemoglobin levels before vs after treatment (FIG. 10B): Highly significant improvements in hemoglobin levels
[6]; 27-month old mice with elevated IL-6, after two weeks
  Hemoglobin levels before vs after treatment (FIG. 12B): Significant improvements in hemoglobin levels
[6]; 27-month-old mice with elevated TNFα, after two weeks
  Hemoglobin levels before vs after treatment (FIG. 11B): Significant improvements in hemoglobin levels
[7]
  Hemoglobin levels: increase hemoglobin levels
